Like-named read-outs stand apart in the source and are kept apart here.
Columns and labels:
[1] = test system: gastric tissues; assay: Nitrergic relaxation of gastric tissues after in vitro incubation (organ bath); parameters: species or system rat
[2] = test system: rats; assay: Intragastric (antrum) pressure by ambulatory telemetry; format: in vivo, rat; conditions: L-NAME 200 mg/day/kg s.c. osmotic mini-pump, 4 days
Experimental: The intragastric antrum pressure (IGAP) was measured in normal and diabetic male (FIG. 3A) and female (FIG. 3B) rats. The transducer pressure catheter was introduced into the gastric antrum cavity 5 mm proximal to the pylorus to record IGAP (mmHg×sec). After recording the baseline IGAP, N^G-nitro-L-arginine methyl ester (L-NAME, 200 mg/day/kg body weight (BW)/rat) was administered subcutaneously in the same rats by osmotic mini-pumps (Alza, Palo Alto, Calif., model 2ML1 with a pumping rate of 10 μl/hour) for 4 days. All subsequent studies were performed 1 week after surgery in overnight fasted rats that were awake and in a free-moving state. Pressure recordings were performed at least 2-3 hours between 9-12 am. Bilateral ovariectomy was performed as reported previously. Dietary BH4 (25 mg/day/kg body weight (BE)/rat). *p<0.05. ANOVA.
Intragastric pressure (IGP) was measured using ambulatory telemetric device. […]
Dietary BH4 (25 mg/kg b.w/rat/day) was supplemented for female rats for 12 weeks beginning from day 2 after diabetic induction. Intragastric pressure (IGP) was measured in female control, diabetic and diabetic+BH4 treated rats. […] In another experiment, diabetic females were treated for 3 weeks with BH4 and nNOS alpha protein expression was measured in treated and untreated gastric tissues.

[3] = test system: gastric muscle strips; assay: EFS-induced nitrergic (NANC) relaxation of gastric muscle strips after in vivo treatment (organ bath); parameters: species or system rat
Experimental: Electric field stimulation (EFS)-induced NANC relaxation was studied in circular gastric antrum muscle strips. Muscle strips were tied with silk thread at both ends and were mounted in 10-ml water-jacketed organ baths containing Krebs buffer (11 mM glucose) at 37° C. and continuously bubbled with 95% O2-5% CO2 (Radnoti Glass Technology, Monrovia, Calif.). Tension for each muscle strip was monitored with an isometric force transducer and analyzed by a digital recording system (Biopac Systems, Santa Barbara, Calif.). A passive tension equal to 2 g was applied on each strip in the 1 h equilibration period through an incremental increase (0.5 g, four times, at 15 min interval). Gastric antrum muscle strips were exposed to atropine, phentolamine and propranolol (10 μmol each) in bath solution for 1 h to block cholinergic and adrenergic responses. 5-hydroxytryptamine (5-HT; 100 μM) pre-contracted strips were exposed to EFS (90 V, 2 Hz, 1-ms pulse for duration of 1 min) to elicit NANC relaxation.
To investigate the in vivo effect of methotrexate (MTX) on EFS induced nitrergic relaxation; a group of animals were supplemented with MTX (inhibitor of dihydro folate reductase, DHFR) 3.75 mg kg^−1 body wt. per twice a day for 4 days. Gastric strips from control animals and MTX treated animals were incubated in organ bath and nitrergic relaxation was measured by EFS. At the end of each experiment, the muscle strip was blotted dry with filter paper and weighed. Comparisons between groups were performed by measuring the area under the curve (AUC mg^−1 tissue) of the EFS-induced relaxation (AUCR) for 1 min and the baseline for 1 min (AUCB) according to the formula (AUCR−AUCB) weight of tissue (mg)^−1=AUC mg of tissue^−1.

[4] = test system: nNOSalpha; assay: nNOSalpha dimerization, LT-SDS-PAGE, after in vivo treatment; parameters: species or system rat; conditions: for nNOSalpha dimmer/monomer level: diabetic female rat gastric antrum, sepiapterin 10 days or BH4 2 weeks, 20 mg kg^−1 per day
Experimental: Levels of nNOSa monomer and dimer were quantified by western blotting via Low temperature (LT)-PAGE in gastric antrum homogenates as described previously (94). LT-SDS-PAGE was performed on ice. The low-temperature process was used to identify nNOS dimers and monomers in the native state as low temperature is known to prevent monomerization of nNOS dimmers. For the low-temperature processing, 30 μg of protein in standard Laemmli buffer at 4° C. was used for SDS-PAGE. The mixture was incubated at 0° C. for 30 min before LT-SDS-PAGE using a 6% separating gel. All gels and buffers were pre-equilibrated to 4° C. prior to electrophoresis and the buffer tank placed in an ice-bath during electrophoresis to maintain the gel temperature below 15° C. A polyclonal antibody specific to nNOSa (Zymed Laboratories) and anti-rabbit IgG conjugated with horseradish peroxidase (Sigma Chemical, St. Louis, Mo.) were used as the primary and secondary antibodies, respectively.

[5] = test system: gastric antrum muscle strip; assay: In vitro NO release from gastric antrum strips (total nitrite); parameters: species or system rat; conditions: 48 h incubation
Experimental: Animals from control groups were killed by CO2 asphyxiation, the abdominal cavity opened, and the stomach dissected and transferred in chilled oxygenated Krebs bicarbonate solution of the following composition (in mmol): 118.0 NaCl, 4.7 KCl, 25.0 NaHCO3, 1.5 CaCl2, 1.2 MgSO4, 1.2 KH2PO4, and 11.5 glucose (pH 7.4). Antrum tissue was harvested and cut into mucosa-free strips and were cultured for 48 h (37° C., 5% CO2) in […] of phenol red-free DMEM supplemented with NB27 (2%) and antibiotics (1%) in the presence of normal glucose (control), control+MTX (100 μM), control+MTX+SEP (100 μM, 100 μM). On completion of incubation, DMEM ([…]) was collected and stored at −80° C. for analysis of NO released in medium during incubation period. NO released in the medium was analyzed as total nitrite (metabolic byproduct of NO) following the protocol supplied with a commercially available kit (EMD Chemicals, Gibbstown, N.J.).

[6] = test system: nNOSalpha protein; assay: nNOSalpha protein expression, Western blot; format: in vivo, rat; conditions: for nNOSalpha protein level: diabetic female rat gastric antrum, sepiapterin 10 days or BH4 2 weeks, 20 mg kg^−1 per day
Experimental: nNOSa protein was quantified in gastric antrum homogenates from all groups using standard western blot analysis, as described in our previous study (94). Proteins were measured by Bio-Rad protein assay (Bio-Rad, Hercules, Calif.) and 30 μg protein was separated by 6% SDS polyacrylamide gel electrophoresis (SDS-PAGE). The membrane was immunoblotted with polyclonal nNOSa primary antibody (Zymed Laboratories Inc., CA) and anti-rabbit IgG conjugated with horseradish peroxidase (Sigma Chemical, St. Louis, Mo.) as secondary antibody. Binding of antibodies to the blots was detected with enhanced chemiluminescence system (ECL, Amersham Pharmacia Biotech, Piscataway, N.J.) following manufacturer's instructions. Stripped blots were re-probed with g-tubulin specific polyclonal antibodies (Sigma Chemical, St. Louis, Mo.) to enable normalization of signals between samples. Band intensities were analyzed using Bio-Rad Gel Doc (Bio-Rad, Hercules, Calif.).

[7] = test system: female rats; assay: Solid gastric emptying studies; format: in vivo, rat; conditions: for Effect on gastric emptying for solids: OVX female rats, 21 day release pellets E2 2 mg or P4 20 mg per kg
Experimental: In addition, using the similar gastric emptying protocol, accelerated gastric emptying was observed instead of delayed gastric emptying in spontaneous diabetic female but not in male diabetic animals (101).
According to the protocol, animals were fasted over night (provide water). On the next day, known amount of food was fed to the animals for 3 h. At the end of 3 h collected the remaining food from the cage and calculated the amount of food intake. Then fast the animals for 4 hrs without food and water. At the end of fast, animals were euthanized, collected the gastric tissue and measured the weight of the whole stomach. Then removed the food contents by opening the stomach and measured the empty stomach weight. The rate of gastric emptying was calculated according to the following equation: gastric emptying (% in 4 h)=(1−gastric content food intake^−1)×100.

[8] = Fasting blood glucose in control and STZ-diabetic female rats; format: in vivo, rat
Experimental: (§1) Diabetes was induced in overnight fasted animals by a single intraperitoneal injection of streptozotocin (STZ, 55 mg kg^−1) (Sigma Chemical, St. Louis, Mo.) prepared in 9 mmol citrate buffer, pH 4.0. Control animals were injected with the vehicle (9 mmol citrate buffer, pH 4.0) (94). Blood glucose levels were examined in overnight fasted animals, 48 h post STZ injection. […] Blood glucose levels in vehicle-treated overnight fasting rats ranged between 80-95 mg dl^−1. Both control and diabetic female rats were selected during the diestrus phase of the estrous cycle using vaginal smear testing method [by measuring vaginal cytology (90-100% of leucocytes) under microscope] for further experiments. As reported earlier, 60-70% of diabetic rats show a persistent diestrous stage of the estrous cycle (data not shown) (95-96).
(§2) At the end of 7th week of diabetes induction, animals were divided into four groups, i.e. control female rats (C), diabetic female rats (DB), BH4 supplemented diabetic female rats (DB+BH4) and SEP supplemented diabetic female rats (DB+SEP). DB+BH4 were provided with BH4 pellets (20 mg kg^−1 body wt day^−1) for next 2 weeks. […] Tissue samples were snap frozen in liquid nitrogen and stored at −80° C. until analyzed. BH4 or SEP-pellets used in this study were prepared by compressing (Schircks Laboratories, Switzerland) with rodent chow and stored at −20° C. until used. […]

[9] = Body weight in control and STZ-diabetic female rats; format: in vivo, rat; conditions: STZ-diabetic female rats + SEP 20 mg kg^−1 day^−1, 10 days
Experimental: as §1, §2

[10] = healthy female rats, MTX 3.75 mg kg^−1 i.p. twice a day, 4 days
[11] = diabetic female rats + dietary sepiapterin 20 mg kg^−1, 10 days

Compound: NC1=N[C@H](O)[C@H]2[C@H]3O[C@]4(O)O[C@@H]([C@@H](O)[C@@]2(N1)[C@@H]4O)[C@]3(O)CO [TTX, tetrodotoxin]
- Effect on nitrergic relaxation [1]: abolished

Compound: COC(=O)[C@@H](N)CCCNC(=N)N[N+](=O)[O-] [L-NAME, N^G-nitro-L-arginine methyl ester]
- Effect on IGAP ([2]; female rats): significantly elevated
- Effect on IGAP ([2]; male rats): decreased
- Effect on nitrergic relaxation ([1]; preincubation L-NAME 10^−4M, FC and FD groups, 2 Hz): significant inhibition

Compound: CN(Cc1cnc2nc(N)nc(N)c2n1)c1ccc(C(=O)N[C@@H](CCC(=O)O)C(=O)O)cc1 [MTX, methotrexate]
- nitrergic relaxation, antrum, EFS 2 Hz [3, 10]: −0.08±0.04 AUC mg^−1 tissue
- nitrergic relaxation, fundus, EFS 2 Hz [3, 10]: −0.17±0.076 AUC mg^−1 tissue
- nitrergic relaxation, pylorus, EFS 2 Hz [3, 10]: −0.13±0.05 AUC mg^−1 tissue
- nNOSalpha dimer/monomer ratio ([4]; female rat gastric antrum, MTX 3.75 mg kg^−1 twice a day, 4 days): 0.2±0.04
- NO release ([5]; MTX 100 μM): 0.73±0.15

Compound: C[C@]12CC[C@@H]3c4ccc(O)cc4CC[C@H]3[C@@H]1CC[C@@H]2O [E2, estradiol-17beta]
- Effect on reduced nNOSalpha protein expression ([6]; diabetic female rat gastric tissues, E2 2 mg/kg 21 day pellet): significantly restored
- Effect on gastric emptying for solids [7]: significantly delayed
- Effect on delayed solid gastric emptying ([7]; diabetic female rats, E2 2 mg/kg, 3 weeks): significantly restored

Compound: C[C@H](O)C(=O)C1=Nc2c(nc(N)[nH]c2=O)NC1 [sepiapterin]
- Change in nNOSalpha protein expression ([6]; control female rat gastric antrum, BH4 or sepiapterin): no change
- nNOSalpha protein level [6]: 0.88±0.15
- nitrergic relaxation, gastric antrum, EFS 2 Hz ([3]; control female rats + sepiapterin): −0.51±0.06 AUC mg^−1 tissue
- nitrergic relaxation, gastric antrum, EFS 2 Hz [3, 11]: −0.35±0.03 AUC mg^−1 tissue
- Blood Glucose ([8]; STZ-diabetic female rats + SEP, fasting): 494.5 ± 13.96 mg/dL
- Effect on blood glucose levels ([8]; both control and diabetic female rats): unchanged
- solid gastric emptying (% in 4 h) ([7]; control female rats + dietary sepiapterin 20 mg kg^−1, 10 days): 74±4 % in 4 h
- solid gastric emptying (% in 4 h) [7, 11]: 67.0±8.2 % in 4 h
- nNOSalpha dimmer/monomer level [4]: 0.64±0.07
- Body Weight [9]: 188 ± 4.3 g
- Body Weight ([9]; listed as SEP): 188 ± 4.3 g
- NO release ([5]; MTX 100 μM + SEP 100 μM): 1.02±0.19

Compound: C[C@H](O)[C@H](O)[C@H]1CNc2nc(N)[nH]c(=O)c2N1 [tetrahydrobiopterin]
- nNOSalpha protein level [6]: 0.42±0.05
- nNOSalpha dimmer/monomer level [4]: 0.36±0.11

Compound: CC(=O)[C@H]1CC[C@H]2[C@@H]3CCC4=CC(=O)CC[C@]4(C)[C@H]3CC[C@]12C [P4, progesterone]
- Effect on gastric emptying for solids [7]: not

From patent US9486456B2, “Treatment of esophageal motility disorder using sepiapterin, tetrahydrobiopterin and derivatives thereof” (The Board of Regents of the University of Texas System, priority 2006, dated 2016)
